Read-outs that look alike come from different tables or passages of the source.
Tests used:
[1] = system: VM46 Human Colon Carcinoma Xenografts; settings: for MDS (n): days until tumor reached 1.5 g
Experimental: (§1) Other antitumor compounds were similarly formulated. […] The dosing volume was 0.3 mL per 20 g mouse.
(§2) Female NCr-nude mice (6-8 weeks of age, implanted subcutaneously with 1 mm^3 VM46 colon carcinoma fragments in the flank) were sorted into treatment groups of six mice each. […] Dosing was initiated on Day 1. The antitumor compounds were given i.v. at an estimated maximum tolerated dose (MTD) appropriate for each agent on a qd x 1 schedule (single administration of compound). […] Taxotere was given i.v. at a dose of 70 mg/kg on a qd x 1 schedule. The vehicle was given i.v. to control mice in Group 1 in each test on Day 1 (qd x 1) schedule. Treatment groups are detailed in Table 13. The VM46 study ended on Day 64.
(§3) The results are summarized in table 14 and include mean days of survival (MDS), number of toxic deaths, number of survivors, number of complete or partial responses, and number with stable disease. The mean days of survival is the number of days after which a neoplasm reached a size of 1.5 g and the animal was euthanized. A complete response is obtained if the tumor is not palpable at the end of the study. A partial response is obtained if the tumor shrinks to a size smaller than its size on Day 1 of the study. […]

[2] = system: DU 145 Human Prostate Carcinoma Xenografts; settings: DU145
Experimental: (§4) Other antitumor compounds were similarly formulated. […] The dosing volume was 0.3 ml per 20 g mouse.
Male NCr-nude mice (implanted subcutaneously with 1 mm^3 DU145 prostate carcinoma fragments in the flank) were sorted into treatment groups of five mice each. […] Dosing was initiated on Day 1. The antitumor compounds were given i.v. at an estimated maximum tolerated dose (MTD) appropriate for each agent on a qd x 1 schedule (single administration of compound). […] The vehicle was administered i.v. to control mice in Group 1 on the qd x 1 schedule. The study was terminated on Day 91. Treatment groups are detailed in Table 5.
The mean days of survival is the number of days after which a neoplasm reached a size of 1.5 g and the animal was euthanized. A complete response is obtained if the tumor is not palpable at the end of the study. A partial response is obtained if the tumor shrinks to a size smaller than its size on Day 1 of the study. […]

[3] = system: Panc-1 Human Pancreatic Carcinoma Xenografts
Experimental: as §1
as §2, with “Panc-1 pancreatic” for “VM46 colon”, “12.” for “13.”, “The” for “The VM46”, “was terminated” for “ended”, “63.” for “64.”
The mean days of survival is the number of days after which a neoplasm reached a size of 1.5 g and the animal was euthanized. A complete response is obtained if the tumor is not palpable at the end of the study. A partial response is obtained if the tumor shrinks to a size smaller than its size on Day 1 of the study.

[4] = system: A375 Human Melanoma Xenografts; settings: for Mean Score: tumor score 1 to 10, group mean
Experimental: as §4
Female NCr-nude mice (implanted subcutaneously with 1 mm^3 A375 melanoma in the flank) were sorted into treatment groups of six mice each, except for the Taxotere group having seven mice each. […] Dosing was initiated on Day 1. The antitumor compounds were given i.v. at an estimated maximum tolerated dose (MTD) appropriate for each agent on a qd x 1 schedule (single administration of compound). […] Taxotere was given i.v. on a qd x 1 schedule at a dose of 70 mg/kg. The vehicle was administered i.v. to control mice in Group 1 on the qd x 1 schedule. Treatment groups are detailed in Table 9. The study was terminated on Day 60.
as §3, with “Table 10” for “table 14”, “tumor” for “neoplasm”, “2.0” for “1.5”

[5] = 107.6 mg/kg i.v. qd x 1, 6 mice/group, study end Day 64
[6] = i.v. qd x 1 (mg/kg: Taxol 24, 1351 107.6, 1393 72.6, 1401 107.6, 1418 107.6, 1424 195.1), 5 mice/group, Day 91
[7] = i.v. qd x 1 at estimated MTD, 6 mice/group, study end Day 63
[8] = A375, i.v. qd x 1 (mg/kg: Taxol 24, 1351 107.6, 1393 72.6, 1401 107.6, 1418 107.6, 1424 195.1, Taxotere 70), Day 60
[9] = A375, i.v. qd x 1 (mg/kg: Taxol 24, 1351 107.6, 1393 72.6, 1401 107.6, 1418 107.6, 1424 195.1, Taxotere 70)
[10] = 70 mg/kg i.v. qd x 1, 6 mice/group, study end Day 64

CCC(=O)O[C@H]1C[C@H]2OC[C@@]2(OC(C)=O)[C@H]2[C@H](OC(=O)c3ccccc3)[C@]3(O)C[C@H](OC(=O)[C@H](O)[C@H](C=C(C)C)NC(=O)OC(C)(C)C)C(C)=C([C@@H](O)C(=O)[C@]12C)C3(C)C [Compound 1351]
Complete Response [1, 5]: 0
Mean Score [1, 5]: 4.5 ± 1.4
Partial Response [1, 5]: 1
Stable Disease [1, 5]: 2
Survivors [1, 5]: 3
Toxic Deaths [1, 5]: 0
MDS (n) [1, 5]: 43.7 ± 3.4 (3) days
Toxic Deaths ([1]; VM46, i.v. qd x 1 at estimated MTD, 6 mice/group): no toxic deaths
maximal mean group weight losses ([1]; mouse, in vivo, iv): 3-14%
tolerability ([1]; mouse, in vivo, iv): quite well-tolerated
mortality rate ([2]; 1351 107.6 mg/kg i.v. qd x 1): 40%
weight loss in a number of the treated mice prior to their deaths ([2]; 1351 107.6 mg/kg i.v. qd x 1): over 20%
MDS (n) ([2]; i.v. qd x 1 (mg/kg: Taxol 24, 1351 107.6, 1393 72.6, 1401 107.6, 1418 107.6, 1424 195.1), 5 mice/group, 1.5 g cut-off, Day 91): 62.6 ± 17.5 (2) days
Complete Response [2, 6]: 0
Partial Response [2, 6]: 1
Stable Disease [2, 6]: 0
Survivors [2, 6]: 1
Mean Score ([2]; i.v. qd x 1 (mg/kg: Taxol 24, 1351 107.6, 1393 72.6, 1401 107.6, 1418 107.6, 1424 195.1), tumor score 1 to 10, group mean): 2.6 ± 1.5
Toxic Deaths ([3]; Panc-1, i.v. qd x 1 (mg/kg: Taxol 24, 1351 75.32, 1393 72.6, 1401 107.6, 1418 107.6, 1424 195.1), 6 mice/group): no toxic deaths
Complete Response [3, 7]: 1
Mean Score [3, 7]: 5.7 ± 1.3
Partial Response [3, 7]: 1
Stable Disease [3, 7]: 2
Survivors [3, 7]: 4
Toxic Deaths [3, 7]: 0
MDS (n) ([3]; i.v. qd x 1 at estimated MTD, 6 mice/group, study end Day 63, days until tumor reached 1.5 g): 42.5 ± 10.2 days
mean group weight losses ([3]; mouse, in vivo, iv): 3-13%
tolerability ([3]; mouse, in vivo, iv): well-tolerated
Complete Response [4, 8]: 0
Partial Response [4, 8]: 0
Stable Disease [4, 8]: 0
Survivors [4, 8]: 0
Mean Score [4, 9]: 0±0
mean group weight losses ([4]; mouse, in vivo, iv): 20-30%

CC(=O)O[C@@]12CO[C@@H]1C[C@H](O)[C@@]1(C)C(=O)[C@H](O)C3=C(C)[C@@H](OC(=O)[C@H](O)[C@@H](NC(=O)OC(C)(C)C)c4ccccc4)C[C@@](O)([C@@H](OC(=O)c4ccccc4)[C@H]21)C3(C)C [docetaxel, reference compound]
Complete Response [1, 10]: 0
Mean Score [1, 10]: 2 ± 0
Partial Response [1, 10]: 0
Stable Disease [1, 10]: 0
Survivors [1, 10]: 0
Toxic Deaths [1, 10]: 0
MDS (n) [1, 10]: 45.3 ± 3.6 (6) days
MDS ([1]; VM46, i.v. qd x 1 (Taxol 24 mg/kg, Taxotere 70 mg/kg), 6 mice/group, 1.5 g cut-off, Day 64): 45.3 days
MDS (n) ([4]; A375, i.v. qd x 1 (mg/kg: Taxol 24, 1351 107.6, 1393 72.6, 1401 107.6, 1418 107.6, 1424 195.1, Taxotere 70), 2.0 g cut-off, Day 60): 21.5 ± 0.5 (7) days
Complete Response [4, 8]: 0
Partial Response [4, 8]: 0
Stable Disease [4, 8]: 0
Survivors [4, 8]: 0
Toxic Deaths [4, 8]: 0
Mean Score [4, 9]: 2±0
survival extension compared to Group 1 controls ([4]; A375, i.v. qd x 1 (mg/kg: Taxol 24, 1393 72.6, 1418 107.6, Taxotere 70)): 49%

— patent EP1285918A1, “C7 Ester substituted taxanes as antitumor agents” (Florida State University Research Foundation, Inc., priority 2001, dated 2003)
